Measured values published in BigSolDB 2.1.

## CCOC(=O)C1(c2ccccc2)CCN(CCC(C#N)(c2ccccc2)c2ccccc2)CC1
In acetone, 293.15 K
  solubility (mole fraction): 0.00426
In acetone, 298.15 K
  solubility (mole fraction): 0.00479
In acetone, 303.15 K
  solubility (mole fraction): 0.00559
In acetone, 308.15 K
  solubility (mole fraction): 0.00608
In acetone, 313.15 K
  solubility (mole fraction): 0.00664
In acetone, 318.15 K
  solubility (mole fraction): 0.00776
In acetonitrile, 293.15 K
  solubility (mole fraction): 0.00427
In acetonitrile, 298.15 K
  solubility (mole fraction): 0.005
In acetonitrile, 303.15 K
  solubility (mole fraction): 0.00601
In acetonitrile, 308.15 K
  solubility (mole fraction): 0.00727
In acetonitrile, 313.15 K
  solubility (mole fraction): 0.00919
In acetonitrile, 318.15 K
  solubility (mole fraction): 0.0124
In ethanol, 293.15 K
  solubility (mole fraction): 0.00169
In ethanol, 298.15 K
  solubility (mole fraction): 0.00198
In ethanol, 303.15 K
  solubility (mole fraction): 0.0023
In ethanol, 308.15 K
  solubility (mole fraction): 0.0027
In ethanol, 313.15 K
  solubility (mole fraction): 0.00325
In ethanol, 318.15 K
  solubility (mole fraction): 0.00432
In isopropanol, 293.15 K
  solubility (mole fraction): 0.000258
In isopropanol, 298.15 K
  solubility (mole fraction): 0.000442
In isopropanol, 303.15 K
  solubility (mole fraction): 0.000627
In isopropanol, 308.15 K
  solubility (mole fraction): 0.000859
In isopropanol, 313.15 K
  solubility (mole fraction): 0.00108
In isopropanol, 318.15 K
  solubility (mole fraction): 0.00156
In methanol, 293.15 K
  solubility (mole fraction): 0.00598
In methanol, 298.15 K
  solubility (mole fraction): 0.00791
In methanol, 303.15 K
  solubility (mole fraction): 0.0105
In methanol, 308.15 K
  solubility (mole fraction): 0.0123
In methanol, 313.15 K
  solubility (mole fraction): 0.0144
In methanol, 318.15 K
  solubility (mole fraction): 0.0184
In water, 293.15 K
  solubility (mole fraction): 8.6e-06
In water, 298.15 K
  solubility (mole fraction): 1.19e-05
In water, 303.15 K
  solubility (mole fraction): 1.45e-05
In water, 308.15 K
  solubility (mole fraction): 1.96e-05
In water, 313.15 K
  solubility (mole fraction): 2.7e-05
In water, 318.15 K
  solubility (mole fraction): 3.28e-05
